Source: PubChem BioAssay AID504702 (Southern Research Specialized Biocontainment Screening …, 2011)
“And” between values parts separate entries of the source, which are not always exact repeats. Identical values can stand only once. The source made the active and inactive calls. No rule for the calls is given here.

Legend:
[1] = tested on: M. tuberculosis H37Rv with meropenem, growth inhibition; assay: M. tuberculosis growth inhibition with meropenem, dose response, H37Rv, set 2 (AID 504702); settings: for IC90: measured here: IC90 growth with meropenem;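 as to all read-outs here: growth read by Alamar Blue after 7 days plus overnight incubation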
[2] = as above; settings: M. tuberculosis H37Rv with meropenem, growth inhibition

| SMILES | IC50 [1] | IC90 [1] | growth inhibition ([2]; at 25 µM (top of the series)) | growth inhibition ([2]; at 18.8 µM (top of the series)) |
| --- | --- | --- | --- | --- |
| O=C(COc1ccc2ccccc2c1)Nc1nc2ccccc2[nH]1 | 8.87 µM | > 25 µM | – | – |
| CCOC(=O)c1cnc2cc(-c3ccc(C(C)(C)C)cc3)nn2c1N | – | > 25 µM | – | – |
| COC(=O)c1c(C)[nH]c2ccccc12 | – | – | -4.94% (inactive) | – |
| O=C(CSc1n[nH]c(=O)n1C1CC1)c1ccc2c(c1)OCCO2 | 4.57 µM | > 25 µM | – | – |
| Cc1cc2cc(Cl)ccc2n1-c1ccccc1 | – | – | 16.5% (inactive) | – |
| CC(=O)Nc1ccc2nc(NC(=O)Cc3ccccc3)sc2c1 | – | – | -7.72% (inactive) | – |
| CC(C)Cn1c2c(c(O)c(C(=O)Nc3nccs3)c1=O)CCCC2 | – | – | -0.17% (inactive) | 3.14% (inactive) |
| CC(=O)c1c(C)n(-c2ccc(C)cc2)c2ccc(O)cc12 | – | – | -1.38% (inactive) | – |
| Cc1cc(C)c(OCC(=O)Nc2nc3ccc(C)cc3s2)c(C)c1 | – | – | -0.38% (inactive) | – |
| CCOc1ccc2c(c1)c(C(C)=O)c(C)n2Cc1ccco1 | – | – | -2.87% (inactive) | – |
| N/C(=N\c1nc2ccccc2o1)NC(=O)COc1ccc2ccccc2c1 | – | – | -2.85% (inactive) | – |
| CCOc1ccc2c(c1)c(C(C)=O)c(C)n2-c1ccccc1Cl | 13.6 µM | > 25 µM | – | – |
| COC(=O)c1c(C)n(-c2ccccc2)c2ccc(O)cc12 | 8.43 µM | > 18.8 µM | – | – |
| CCOc1ccc2c(c1)c(C(C)=O)c(C)n2-c1ccccc1C | 3.43 µM | 12.1 µM | – | – |
| COc1ccc2[nH]c(C)cc2c1 | – | – | 0.56% (inactive) | – |
| COc1ccc2c(c1)cc(C)n2-c1ccccc1 | 6.88 µM | > 25 µM | – | – |
| Cc1cccnc1NC(=S)NC(=O)c1cncc(Br)c1 | 2.71 µM | > 25 µM | – | – |
| Cc1ccccc1OCC(=O)Nc1noc(-c2ccccc2)n1 | – | – | -4.18% (inactive) | – |
| CCOc1ccc2nc(NC(=O)Cc3ccc(OC)cc3)sc2c1 | – | – | -9.77% (inactive) | – |
| COc1ccc2nc(NC(=O)COc3ccccc3C(C)C)sc2c1 | – | – | -2.44% (inactive) | – |
| Oc1ccc2[nH]ccc2c1 | – | – | 3.81% (inactive) | – |
| CCOc1ccc2[nH]c(C)cc2c1 | – | – | -0.67% (inactive) | – |
| Cc1ccc(OCC(=O)Nc2ccc(Cl)cc2)c(C)c1 | – | – | -3.91% (inactive) | – |

| SMILES | IC50 [1] | IC90 [1] | growth inhibition ([2]; at 25 µM (top of the series)) | growth inhibition ([2]; at 18.8 µM (top of the series)) |
| --- | --- | --- | --- | --- |
| CCOc1ccc2c(c1)c(C(C)=O)c(C)n2-c1ccccc1 | 0.66 µM and 0.52 µM | > 18.8 µM and 2.79 µM | – | – |
| CCC(=O)N/C(N)=N/c1nc2ccccc2o1 | – | – | -1.89% (inactive) | – |
| CCOC(=O)COc1nc(-c2ccc(Cl)cc2)cc(-c2ccco2)c1C#N | 6.8 µM and 4.07 µM | > 25 µM | – | – |
| CCOc1ccc2nc(NC(=O)COc3ccc(Cl)c(C)c3)sc2c1 | – | – | -5.37% (inactive) | – |
| O=C(Nc1nc2ccccc2[nH]1)c1ccc(Cl)c(Cl)c1 | 0.81 µM | > 25 µM | – | – |
| Cc1ccc(OCC(=O)Nc2nnn(C)n2)c(C)c1 | – | – | -3.74% (inactive) | – |
| CN(NC(=O)c1c(Cl)cccc1Cl)c1cccc(Cl)n1 | 15.5 µM | > 25 µM | – | – |
| c1ccc(Nc2ncnc3c2oc2ccccc23)cc1 | 5.29 µM | > 25 µM | – | – |
| Cc1ccc(OCC(=O)Nc2ccc3c4c(cccc24)CC3)c(C)c1 | 0.91 µM and 6.11 µM | > 25 µM | – | – |
| COc1ccc2c(c1)c(C(C)=O)c(C)n2-c1ccccc1 | 0.53 µM and 1.3 µM | > 18.8 µM | – | – |
| OCCCc1cn(-c2ccccc2)c2ccccc12 | 14.2 µM | > 25 µM | – | – |
| CCOc1ccc2c(c1)c(C(C)=O)c(C)n2-c1cccc(Cl)c1 | 10.5 µM | > 25 µM | – | – |
| CCc1ccc2nc(/N=C(\N)NC(=O)c3ccccc3)nc(C)c2c1 | 0.82 µM | > 25 µM | – | – |
| CC(=O)c1c(C)n(-c2ccccc2)c2ccc(OS(=O)(=O)C(F)(F)F)cc12 | – | > 25 µM | – | – |
| COc1cccc(NC(=S)Nc2cc(C)cc(C)n2)c1 | 7.2 µM | > 25 µM | – | – |
| CCOc1ccc2c(c1)cc(C)n2-c1ccccc1 | 11.5 µM | > 25 µM | – | – |
| Cc1c(OCc2ccc(C(=O)O)cc2)ccc2c(-c3ccccc3)cc(=O)oc12 | 3.3 µM and 3.99 µM | > 25 µM | – | – |
| CCOc1ccc2c(c1)c(CC)c(C)n2-c1ccccc1 | 4.42 µM | > 25 µM | – | – |
| O=C(COC(=O)C1=COCCO1)Nc1ccc2c(c1)OCO2 | 9.76 µM | > 25 µM | – | – |
| Cc1ccccc1OCC(=O)Nc1ccccc1N1CCCCC1 | 6.13 µM and 8.97 µM | > 25 µM | – | – |
| Cc1ccc(OCC(=O)Nc2cccc3ccccc23)c(C)c1 | 20.5 µM | > 25 µM | – | – |
| c1ccc(OCc2nnc(-c3ccccc3)o2)cc1 | 15 µM and 5.67 µM | > 25 µM | – | – |
| O=C(COC(=O)C1CC1)c1c[nH]c2ccccc12 | 0.25 µM and 0.64 µM | > 25 µM | – | – |
